In brackets after ≈: the same amount, converted by molar mass. Activity calls are given as the source filed them. The calls are words filed in the database; no cut-off is given here.
Assays:
Pseudomonas aeruginosa = assay: Antibacterial activity against Pseudomonas aeruginosa PAO1 incubated for 16 to 24 hrs by broth microdilution assay; assay type: functional; conditions: time 16-24 hrs
Acinetobacter baumannii [1] = assay: Antibacterial activity against carbapenem-resistant Acinetobacter baumannii CRAB-1 clinical isolate incubated for 16 to 24 hrs by broth microdilution assay; assay type: functional; conditions: time 16-24 hrs
Staphylococcus aureus [2] = assay: Antibacterial activity against methicillin-resistant Staphylococcus aureus USA300 LAC infected in female BALB/c mouse assessed as animal survival rate at 7 mg/kg, iv measured for 7 days consecutively relative to control; assay type: functional; conditions: time 7.0 day
Enterococcus faecium [3] = assay: Antibacterial activity against vancomycin-resistant Enterococcus faecium Efm-HS-08257 harboring VanM phenotype incubated for 16 to 24 hrs by broth microdilution assay; assay type: functional; conditions: time 16-24 hrs
Enterococcus faecium [4] = assay: Antibacterial activity against vancomycin-resistant Enterococcus faecium Efm-HS-0649 harboring VanA phenotype incubated for 16 to 24 hrs by broth microdilution assay; assay type: functional; conditions: time 16-24 hrs
Staphylococcus aureus [5] = assay: Antibacterial activity against vancomycin-intermediate Staphylococcus aureus Mu50 incubated for 16 to 24 hrs by broth microdilution assay; assay type: functional; conditions: time 16-24 hrs
Escherichia coli = assay: Antibacterial activity against Escherichia coli AB1157 incubated for 16 to 24 hrs by broth microdilution assay; assay type: functional; conditions: time 16-24 hrs
Enterococcus faecium [6] = assay: Antibacterial activity against vancomycin-resistant Enterococcus faecium Efm-HS-vb01 harboring VanB phenotype incubated for 16 to 24 hrs by broth microdilution assay; assay type: functional; conditions: time 16-24 hrs
Enterococcus faecium [7] = assay: Antibacterial activity against vancomycin-resistant Enterococcus faecium Efm-HS-vb02 harboring VanB phenotype incubated for 16 to 24 hrs by broth microdilution assay; assay type: functional; conditions: time 16-24 hrs
Acinetobacter baumannii [8] = assay: Antibacterial activity against Acinetobacter baumannii ATCC19606 incubated for 16 to 24 hrs by broth microdilution assay; assay type: functional; conditions: time 16-24 hrs
Enterococcus faecium [9] = assay: Antibacterial activity against vancomycin-resistant Enterococcus faecium SC-2022-D2-059 harboring VanA phenotype infected in ICR mouse assessed as animal survival rate at 20 mg/kg, iv measured for 7 days relative to control; assay type: functional; conditions: SC-2022-D2-059, 168 h, time 7 day
[10] = Hemolytic activity against rat erythrocytes at 100 ug/ml incubated for 1 hr by absorbance based assay; assay type: toxicity, cell-based, Erythrocyte; conditions: erythrocytes, at 100 µg/mL, read-out: Activity
[11] = Protein binding in plasma (unknown origin); assay type: ADME, cell-free; conditions: read-out: PPB (converted)
Klebsiella pneumoniae = assay: Antibacterial activity against Klebsiella pneumoniae KP-1 incubated for 16 to 24 hrs by broth microdilution assay; assay type: functional; conditions: time 16-24 hrs
Enterococcus faecium [12] = assay: Antibacterial activity against vancomycin-resistant Enterococcus faecium SC-2022-D2-059 harboring VanA phenotype incubated for 16 to 24 hrs by broth microdilution assay; assay type: functional; conditions: time 16-24 hrs
Staphylococcus aureus [13] = assay: Antibacterial activity against vancomycin-intermediate Staphylococcus aureus XN108 infected in CD-1 mouse model assessed as animal survival rate at 7 mg/kg, iv measured for 15 days relative to control; assay type: functional; conditions: XN108, 360 h, time 15 day
[14] = Volume of distribution at steady state in CD-1 mouse at 5 mg/kg, iv measured for 0.05 to 24 hrs by UPLC analysis; assay type: ADME, organism-based; conditions: in vivo, time 0.05-24 hrs, read-out: Vdss
[15] = AUClast in CD-1 mouse at 5 mg/kg, iv measured for 0.05 to 24 hrs by UPLC analysis; assay type: ADME, organism-based; conditions: in vivo, time 0.05-24 hrs
[16] = Half life in CD-1 mouse at 5 mg/kg, iv measured for 0.05 to 24 hrs by UPLC analysis; assay type: ADME, organism-based; conditions: in vivo, time 0.05-24 hrs
Staphylococcus aureus [17] = assay: Antibacterial activity against methicillin-resistant Staphylococcus aureus USA300 LAC infected in mouse model; assay type: functional
[18] = AUC (infinity) in CD-1 mouse at 5 mg/kg, iv measured for 0.05 to 24 hrs by UPLC analysis; assay type: ADME, organism-based; conditions: in vivo, time 0.05-24 hrs
[19] = MRT (infinity) in CD-1 mouse at 5 mg/kg, iv measured for 0.05 to 24 hrs by UPLC analysis; assay type: ADME, organism-based; conditions: in vivo, time 0.05-24 hrs
Staphylococcus aureus [20] = assay: Antibacterial activity against methicillin-resistant Staphylococcus aureus USA300 LAC incubated for 16 to 24 hrs by broth microdilution assay; assay type: functional; conditions: time 16-24 hrs
Staphylococcus aureus [21] = assay: Antibacterial activity against methicillin-resistant Staphylococcus aureus […] infected in CD-1 mouse model assessed as animal survival rate at 7 mg/kg, iv measured for 15 days relative to control; assay type: functional; conditions: 360 h, time 15 day
[22] = Clearance in CD-1 mouse at 5 mg/kg, iv measured for 0.05 to 24 hrs by UPLC analysis; assay type: ADME, organism-based; conditions: in vivo, time 0.05-24 hrs

SMILES	MIC (Pseudomonas aeruginosa)	MIC (Enterococcus faecium [3])	MIC (Enterococcus faecium [4])	MIC (Staphylococcus aureus [5])	MIC (Escherichia coli)	MIC (Enterococcus faecium [6])	MIC (Enterococcus faecium [7])	fraction unbound [11]	MIC (Klebsiella pneumoniae)	also measured
CN[C@H](CC(C)C)C(=O)N[C@H]1C(=O)N[C@@H](CC(N)=O)C(=O)N[C@H]2C(=O)N[C@H]3C(=O)N[C@H](C(=O)N[C@H](C(=O)O)c4cc(O)cc(O)c4-c4cc3ccc4O)[C@H](O)c3ccc(c(Cl)c3)Oc3cc2cc(c3O[C@@H]2O[C@H](CO)[C@@H](O)[C@H](O)[C@H]2O[C@H]2C[C@](C)(N)[C@H](O)[C@H](C)O2)Oc2ccc(cc2Cl)[C@H]1O [VANCOMYCIN]	> 128 µg/mL	> 128 µg/mL	> 128 µg/mL	8 µg/mL (≈ 5.52 µM)	> 128 µg/mL	> 128 µg/mL	16 µg/mL (≈ 11 µM)	0.9	> 128 µg/mL	MIC (Acinetobacter baumannii [1]): > 128 µg/mL; Activity (Staphylococcus aureus [2]): inactive; MIC (Acinetobacter baumannii [8]): > 128 µg/mL; survival at 20 mg/kg (Enterococcus faecium [9]): 0%; hemolysis at 1 h, 100 ug/ml [10]: ~6%; MIC (Enterococcus faecium [12]): ≥ 128 µg/mL
CN[C@H]1C(=O)N[C@@H]2Cc3ccc(cc3)Oc3cc4cc(c3O[C@@H]3O[C@H](C(=O)O)[C@@H](O)[C@H](O)[C@H]3NC(=O)CCCCCCCCC(C)C)Oc3ccc(cc3Cl)[C@@H](O)[C@@H]3NC(=O)[C@H](NC(=O)[C@@H]4NC(=O)[C@@H](NC2=O)c2cc(cc(O)c2Cl)Oc2cc1ccc2O)c1ccc(O)c(c1)-c1c(OC2OC(CO)C(O)C(O)C2O)cc(O)cc1[C@@H](C(=O)NCCCN(C)C)NC3=O (some centres undefined)								0.07		
CCCCCCCCC(O)C[S+](C)CCCNCc1c(O)cc2c(c1O)-c1cc(ccc1O)[C@H]1NC(=O)[C@@H]3NC(=O)[C@H](CC(N)=O)NC(=O)[C@H](NC(=O)[C@@H](CC(C)C)NC)[C@H](O)c4ccc(c(Cl)c4)Oc4cc3cc(c4O[C@@H]3O[C@H](CO)[C@@H](O)[C@H](O)[C@H]3O[C@H]3C[C@](C)(N)[C@H](O)[C@H](C)O3)Oc3ccc(cc3Cl)[C@@H](O)[C@H](NC1=O)C(=O)N[C@@H]2C(=O)O.O=C([O-])C(F)(F)F (some centres undefined)	> 128 µg/mL	2 µg/mL	8 µg/mL	0.25 µg/mL	32 µg/mL	≤ 0.063 µg/mL	1 µg/mL		> 128 µg/mL	survival at 7 mg/kg (Staphylococcus aureus [13]): 80%; Vd [14]: 0.672 L/kg; AUC(0-t) [15]: 7050 ng·h/mL; half-life [16]: 1.13 h; Efficacy (Staphylococcus aureus [17]): 53.3%; AUC(0-inf) [18]: 7080 ng·h/mL; MRT inf [19]: 0.931 h; MIC (Staphylococcus aureus [20]): ≤ 0.063 µg/mL; survival at 7 mg/kg (Staphylococcus aureus [21]): 86.7%; clearance [22]: 12 mL/min/kg

Reference: ChEMBL document CHEMBL6134868, “Novel Aryl Sulfonium Modification on Vancomycin to Tackle MRSA and VRE In Vitro and In Vivo through Dual Enhanced Cell-Wall and Membrane Inhibition” (J Med Chem, 2025)
